# Experimental data: ChEMBL document CHEMBL1129290 (J Med Chem, 1996)
# Legend:
# [1] = species: Rattus norvegicus; assay: animal or person; type: functional
# [2] = species: Rattus norvegicus; assay: animal or person; type: functional; remark: listed apart in the source
# [3] = molecular target: Cyclooxygenase (Rattus norvegicus) (UniProt P35355+Q63921); settings: at 30 mg/kg
# [4] = species: Rattus norvegicus; assay: animal or person; settings: read-out: Inhibition
# [5] = species: Rattus norvegicus; assay: animal or person; settings: read-out: Inhibition; remark: listed apart in the source
# [6] = molecular target: Prostaglandin G/H synthase 1 (Homo sapiens, UniProt P23219)
# Prostaglandin G/H synthase 1, sequence (P23219 whole entry): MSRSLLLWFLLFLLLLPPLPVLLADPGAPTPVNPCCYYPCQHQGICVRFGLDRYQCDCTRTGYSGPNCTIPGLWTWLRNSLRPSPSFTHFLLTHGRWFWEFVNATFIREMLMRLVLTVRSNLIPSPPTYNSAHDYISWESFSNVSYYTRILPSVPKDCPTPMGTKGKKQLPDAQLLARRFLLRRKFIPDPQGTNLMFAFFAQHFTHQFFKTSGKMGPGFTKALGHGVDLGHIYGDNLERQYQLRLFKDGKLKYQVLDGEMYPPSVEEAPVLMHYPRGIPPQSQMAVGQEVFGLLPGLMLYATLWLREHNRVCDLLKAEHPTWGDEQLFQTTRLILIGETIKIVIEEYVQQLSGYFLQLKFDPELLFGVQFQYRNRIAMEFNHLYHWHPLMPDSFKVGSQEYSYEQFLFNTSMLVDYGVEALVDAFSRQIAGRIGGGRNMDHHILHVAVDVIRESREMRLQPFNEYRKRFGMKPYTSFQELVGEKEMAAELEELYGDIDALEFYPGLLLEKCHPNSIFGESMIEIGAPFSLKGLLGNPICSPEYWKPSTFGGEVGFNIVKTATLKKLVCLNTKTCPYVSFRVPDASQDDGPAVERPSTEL
# [7] = species: Rattus norvegicus; assay: animal or person; settings: read-out: Inhibition; remark: listed apart in the source
# [8] = species: Rattus norvegicus; assay: animal or person; settings: read-out: Inhibition; remark: listed apart in the source
# [9] = in vivo; settings: rat, po, 10 mg/kg
# [10] = in vivo; settings: rat
Structure (SMILES),ED50 [1],inhibition [3],inhibition in vivo at 30 mg/kg [4],also measured
COc1ccc(C2=C(c3ccc(S(N)(=O)=O)cc3)CC3(CC3)C2)cc1Cl,35.4 mg/kg,47%,47%,ED50 [2]: 0.21 mg/kg; inhibition in vivo at 1 mg/kg [5]: 79%
NS(=O)(=O)c1ccc(C2=C(c3ccc(Cl)c(Cl)c3)CC3(CC3)C2)cc1,31.3 mg/kg,–,–,IC50 [6]: 0.38 µM; inhibition in vivo at 0.3 mg/kg [7]: 72%
COc1ccc(C2=C(c3ccc(S(C)(=O)=O)cc3)CC3(CC3)C2)cc1Cl,27.7 mg/kg,42%,45%,inhibition in vivo at 2 mg/kg [8]: 12%
NS(=O)(=O)c1ccc(C2=C(c3ccc(F)cc3)CC3(CC3)C2)cc1,17.6 mg/kg,60%,–,ED50 [2]: 0.24 mg/kg; inhibition in vivo at 1 mg/kg [5]: 85%
CS(=O)(=O)c1ccc(C2=C(c3ccc(F)cc3)CCC2)cc1 [SC-57666],–,–,–,bioavailability [9]: 11%; half-life [10]: 1.6 h
CS(=O)(=O)c1ccc(C2=C(c3ccc(F)c(Cl)c3)CC3(CC3)C2)cc1,–,38%,–,–
CS(=O)(=O)c1ccc(C2=C(c3ccc(F)cc3)CC3(CCC3)C2)cc1,–,23%,–,–
COc1ccc(C2=C(c3ccc(S(C)(=O)=O)cc3)CC3(CC3)C2)cc1,–,0%,–,–
COc1c(Cl)cc(C2=C(c3ccc(S(C)(=O)=O)cc3)CC3(CC3)C2)cc1Cl,32.7 mg/kg,44%,50%,ED50 [2]: 0.52 mg/kg; inhibition in vivo at 1 mg/kg [5]: 57%
NS(=O)(=O)c1ccc(C2=C(c3ccc(C(F)(F)F)cc3)CC3(CC3)C2)cc1,46.7 mg/kg,46%,40%,ED50 [2]: 0.04 mg/kg; inhibition in vivo at 2 mg/kg [8]: 92%
CS(=O)(=O)c1ccc(C2=C(c3ccc(OC(F)(F)F)cc3)CC3(CC3)C2)cc1,–,20%,–,–
COc1ccc(C2=C(c3ccc(S(C)(=O)=O)cc3)CC3(CC3)C2)cc1Br,–,21%,–,–
COc1ccc(C2=C(c3ccc(S(C)(=O)=O)cc3)CC3(CC3)C2)cc1F,–,30%,19%,inhibition in vivo at 2 mg/kg [8]: 63%
COc1ccc(C2=CC3(C=C2c2ccc(S(C)(=O)=O)cc2)CC3)cc1Cl,–,–,–,IC50 [6]: 3.38 µM
CS(=O)(=O)c1ccc(C2=C(c3ccc(Cl)c(Cl)c3)CC3(CC3)C2)cc1,–,23%,–,–
CS(=O)(=O)c1ccc(C2=C(c3ccc(C(F)(F)F)cc3)CC3(CC3)C2)cc1,–,35%,–,–
COc1ccc(C2=C(c3ccc(S(N)(=O)=O)cc3)CC3(CC3)C2)cc1F,40.8 mg/kg,40%,38%,ED50 [2]: 0.08 mg/kg; inhibition in vivo at 1 mg/kg [5]: 89%
CS(=O)(=O)c1ccc(C2=C(c3ccc(F)cc3)CC3(CC3)C2)cc1,–,49%,31%,ED50 [2]: 0.3 mg/kg; bioavailability [9]: 58%; half-life [10]: 2.3 h; inhibition in vivo at 1 mg/kg [5]: 68%
NS(=O)(=O)c1ccc(C2=C(c3ccc(F)c(F)c3)CC3(CC3)C2)cc1,–,18%,–,–
CS(=O)(=O)c1ccc(C2=C(c3ccc(F)c(F)c3)CC3(CC3)C2)cc1,–,23%,–,–
CS(=O)(=O)c1ccc(C2=CC3(C=C2c2ccc(F)cc2)CC3)cc1,–,–,–,IC50 [6]: 1.32 µM
